In general, IC50 refers to the point on the concentration scale where inhibition reaches its midpoint. As usually defined, the inhibition is the relative decrease from the control value, in per cent.

Among the data in ChEMBL document CHEMBL4196027, “Structure-based discovery of cytotoxic dimeric tetrahydroxanthones as potential topoisomerase I inhibitors from a marine-derived fungus” (Eur J Med Chem, 2018) are IC50, inhibition and Activity values, retold here.

For assay [1], the system named is HCT-116. In words: Cytotoxicity against human HCT116 cells assessed as reduction in cell proliferation after 48 hrs by MTT assay. In kind it is functional, cell-based. (In general: Tetrazolium dyes change colour on reduction, which living cells bring about.)
In assay [2] the test system is K562. The experiment in a line: Cytotoxicity against human K562 cells assessed as reduction in cell proliferation after 48 hrs by MTT assay. In kind it is functional, cell-based.
Assay [3] has as its system NCI-H1975. The experiment in a line: Cytotoxicity against human NCI-H1975 cells assessed as reduction in cell proliferation after 48 hrs by MTT assay. The class given is functional, cell-based.
For assay [4], the system named is HL-60. The experiment in a line: Cytotoxicity against human HL60 cells assessed as reduction in cell proliferation after 48 hrs by MTT assay. In kind it is functional, cell-based.
Assay [5] is described as follows: Cytotoxicity against human HO8910 cells assessed as reduction in cell proliferation after 48 hrs by MTT assay. In kind it is functional, cell-based.
Assay [6] has as its system MGC-803. The experiment in a line: Cytotoxicity against human MGC803 cells assessed as reduction in cell proliferation after 48 hrs by MTT assay. In kind it is functional, cell-based.
The subject of assay [7] is A549. In words: Cytotoxicity against human A549 cells assessed as reduction in cell proliferation after 48 hrs by MTT assay. The class given is functional, cell-based.
For assay [8], the system named is HEK293. The experiment in a line: Cytotoxicity against HEK293 cells assessed as reduction in cell proliferation after 48 hrs by MTT assay. The class given is cell-based. The settings on record: Homo sapiens, HEK293, 48 h.
Assay [9] has as its target T1, DNA topoisomerase 1 (Homo sapiens) (UniProt P11387).
T1 sequence (whole entry): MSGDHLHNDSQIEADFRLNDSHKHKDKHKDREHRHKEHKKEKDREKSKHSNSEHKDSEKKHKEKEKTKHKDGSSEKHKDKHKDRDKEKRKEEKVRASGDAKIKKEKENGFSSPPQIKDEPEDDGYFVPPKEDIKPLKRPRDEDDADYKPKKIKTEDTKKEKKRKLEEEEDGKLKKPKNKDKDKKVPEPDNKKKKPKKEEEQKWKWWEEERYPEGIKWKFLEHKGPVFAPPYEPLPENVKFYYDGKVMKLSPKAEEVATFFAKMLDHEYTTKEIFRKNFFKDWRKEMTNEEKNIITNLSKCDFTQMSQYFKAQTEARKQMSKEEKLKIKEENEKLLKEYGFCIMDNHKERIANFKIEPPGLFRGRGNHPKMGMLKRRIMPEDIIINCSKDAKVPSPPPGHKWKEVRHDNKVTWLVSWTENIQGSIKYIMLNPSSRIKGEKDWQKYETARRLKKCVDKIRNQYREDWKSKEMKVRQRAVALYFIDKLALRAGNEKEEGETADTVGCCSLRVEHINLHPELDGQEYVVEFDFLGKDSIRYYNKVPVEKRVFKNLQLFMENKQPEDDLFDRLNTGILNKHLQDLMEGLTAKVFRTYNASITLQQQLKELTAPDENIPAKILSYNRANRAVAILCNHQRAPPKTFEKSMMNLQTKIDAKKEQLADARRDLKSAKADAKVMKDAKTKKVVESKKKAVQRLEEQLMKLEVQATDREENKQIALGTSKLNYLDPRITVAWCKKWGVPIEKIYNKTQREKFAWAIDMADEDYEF
In words: Inhibition of DNA topoisomerase-1 (unknown origin) up to 40 uM using supercoiled pBR322 DNA as substrate preincubated with enzyme followed by substrate addition measured after 30 mins by ethidium bromide staining based agarose gel electrophoresis method.

For assay [10], the species on record is Homo sapiens. In words: Inhibition of DNA topoisomerase-2 (unknown origin) at 100 uM using kinetoplast DNA as substrate measured after 30 mins by ethidium bromide staining based agarose gel electrophoresis method.
Assay [11] concerns the target T2, Topoisomerase I (Bos taurus) (UniProt Q2HPH0).
T2 sequence (whole entry): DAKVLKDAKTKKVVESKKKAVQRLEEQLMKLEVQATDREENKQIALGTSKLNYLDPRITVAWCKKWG
In words: Inhibition of calf thymus DNA topoisomerase-1-mediated supercoiled pBR322 DNA relaxation assessed as stabilization of enzyme-DNA complex at 100 uM preincubated with enzyme followed by substrate addition measured after 30 mins by ethidium bromide staining based agarose gel electrophoresis method.

The target of assay [12] is T2, Topoisomerase I (Bos taurus). The settings on record: 40 uM.
Description: Inhibition of calf thymus DNA topoisomerase-1-mediated supercoiled pBR322 DNA relaxation assessed as stabilization of enzyme-DNA complex at 40 uM preincubated with enzyme followed by substrate addition measured after 30 mins by ethidium bromide staining based agarose gel electrophoresis method
Assay [13] relates to DNA. The experiment in a line: Inhibition of ethidium bromide binding to Escherichia coli pBR322 DNA at 100 uM after 30 mins by fluorescence assay. The class given is nucleic-acid assay.
The subject of assay [14] is MGC-803. The experiment in a line: Cell cycle arrest in human MGC803 cells assessed as accumulation at G2/M phase after 24 hrs by propidium iodide staining based flow cytometry. In kind it is functional.
In assay [15] the target is T1, DNA topoisomerase 1 (Homo sapiens). The experiment in a line: Inhibition of DNA topoisomerase-1 (unknown origin) at 10 uM using supercoiled pBR322 DNA as substrate preincubated for 15 mins followed by substrate addition measured after 30 mins by ethidium bromide staining based agarose gel electrophoresis method.
Assay [16] relates to DNA. The experiment in a line: Binding affinity to Escherichia coli pBR322 DNA assessed as hypochromicity by UV-Visible spectrum analysis. In kind it is nucleic-acid assay.
Assay [17] relates to DNA. The experiment in a line: Binding affinity to Escherichia coli pBR322 DNA assessed as red shift by UV-Visible spectrum analysis. The class given is nucleic-acid assay.
The subject of assay [18] is MGC-803. In words: Induction of cell membrane permeability in human MGC803 cells up to 50 uM up to 72 hrs by LDH release assay. In kind it is functional, cell-based.
Assay [19] concerns MGC-803. In words: Induction of apoptosis in human MGC803 cells assessed as change in PARP protein expression up to 25 uM after 24 hrs by Western blot analysis. The class given is functional, cell-based. For orientation: In western blotting, separated proteins are transferred to a membrane and probed.
In assay [20] the test system is MGC-803. In words: Induction of apoptosis in human MGC803 cells assessed as change in procaspase-9 protein expression up to 25 uM after 24 hrs by Western blot analysis. The class given is functional, cell-based.
The target in assay [21] is T1, DNA topoisomerase 1 (Homo sapiens). In words: Inhibition of DNA topoisomerase-1 (unknown origin) using supercoiled pBR322 DNA as substrate preincubated with enzyme followed by substrate addition measured after 30 mins by ethidium bromide staining based agarose gel electrophoresis method.
For assay [22] the target is unchanged. The experiment in a line: Inhibition of DNA topoisomerase-1 (unknown origin) at 10 uM using supercoiled pBR322 DNA as substrate preincubated for 1 to 30 mins followed by substrate addition by ethidium bromide staining based agarose gel electrophoresis method. As to conditions: TDE = time-dependent effect.
Assay [23] deals with MGC-803. In words: Induction of necrosis in human MGC803 cells after 24 hrs by Annexin V-FITC/propidium iodide staining based flow cytometry. The class given is functional, cell-based. Background: In flow cytometry, cells or beads pass a laser one at a time.
The subject of assay [24] is MGC-803. The experiment in a line: Induction of apoptosis in human MGC803 cells up to 25 uM after 48 hrs by Hoechst 33342/propidium iodide staining based flow cytometry. In kind it is functional, cell-based.

Molecules are shown by their SMILES. Active and inactive are the calls of the source. No cut-off for these calls is given here.

As for `COC(=O)[C@@]12Oc3c(-c4ccc(O)c5c4O[C@]4(C(=O)OC)C(=C(O)C[C@H](C)[C@H]4O)C5=O)ccc(O)c3C(=O)C1=C(O)C[C@H](C)[C@H]2O`, the IC50 worked out at 0.5 µM in assay [1] (Homo sapiens, HCT-116, 48 h); 0.4 µM in assay [2] (Homo sapiens, K562, 48 h); 3.5 µM in assay [3] (Homo sapiens, NCI-H1975, 48 h); 0.9 µM in assay [4] (Homo sapiens, HL-60, 48 h); 1.4 µM in [5] (Homo sapiens, HO-8910, 48 h); 0.9 µM in [6] (Homo sapiens, MGC-803, 48 h). In addition, the IC50 in assay [7] (Homo sapiens, A549, 48 h) was found to be 11.7 µM.

With `COC(=O)[C@@]12Oc3ccc(-c4ccc(O)c5c4O[C@]4(C(=O)OC)C(=C(O)C[C@H](C)[C@H]4O)C5=O)c(O)c3C(=O)C1=C(O)C[C@H](C)[C@H]2O`, the IC50 in assay [1] (Homo sapiens, HCT-116, 48 h) was 1.2 µM; in assay [2] (Homo sapiens, K562, 48 h) it was 1.1 µM; in assay [4] (Homo sapiens, HL-60, 48 h) it was 0.5 µM; in [5] (Homo sapiens, HO-8910, 48 h), 1.5 µM; in [6] (Homo sapiens, MGC-803, 48 h) it was 1.1 µM; in assay [7] (Homo sapiens, A549, 48 h), 1.6 µM.

Turning to `COC(=O)c1c(O)c(C)cc(O)c1C(=O)c1c(O)ccc(-c2ccc3c(c2O)C(=O)C2=C(O)C[C@H](C)[C@@H](O)[C@]2(C(=O)OC)O3)c1O`, the IC50 was more than 50 µM in [1] (Homo sapiens, HCT-116, 48 h); more than 50 µM in assay [2] (Homo sapiens, K562, 48 h); more than 50 µM in [3] (Homo sapiens, NCI-H1975, 48 h); 27.8 µM in assay [4] (Homo sapiens, HL-60, 48 h); more than 50 µM in assay [5] (Homo sapiens, HO-8910, 48 h); more than 50 µM in assay [7] (Homo sapiens, A549, 48 h). Moreover, in assay [8], the IC50 was more than 50 µM.

Turning to `COC(=O)[C@@]12Oc3ccc(-c4ccc(O)c5c4O[C@]4(C(=O)OC)C(=C(O)C[C@H](C)[C@H]4O)C5=O)c(O)c3C(=O)C1=C(O)C[C@H](CO)[C@H]2O`, the IC50 is more than 50 µM in assay [1] (Homo sapiens, HCT-116, 48 h); more than 50 µM in assay [2] (Homo sapiens, K562, 48 h); more than 50 µM in [3] (Homo sapiens, NCI-H1975, 48 h); 47.3 µM in [4] (Homo sapiens, HL-60, 48 h); more than 50 µM in assay [5] (Homo sapiens, HO-8910, 48 h); more than 50 µM in assay [7] (Homo sapiens, A549, 48 h). Besides, in [8], the IC50 was more than 50 µM.

With `COC(=O)[C@@]12Oc3c(-c4ccc5c(c4O)C(=O)C4=C(O)C[C@H](C)[C@@H](O)[C@]4(C(=O)OC)O5)ccc(O)c3C(=O)C1=C(O)C[C@H](CO)[C@H]2O`, the inhibition entry in assay [9] and in assay [11] was “Active” each time. Further, in [10], the inhibition result is “inactive”. For the same compound, the IC50 is more than 50 µM in assay [1] (Homo sapiens, HCT-116, 48 h); more than 50 µM in assay [2] (Homo sapiens, K562, 48 h); 49.5 µM in [3] (Homo sapiens, NCI-H1975, 48 h); 49.5 µM in [4] (Homo sapiens, HL-60, 48 h); more than 50 µM in assay [5] (Homo sapiens, HO-8910, 48 h); more than 50 µM in assay [6] (Homo sapiens, MGC-803, 48 h). In addition, the IC50 in assay [7] (Homo sapiens, A549, 48 h) was more than 50 µM; in assay [8], more than 50 µM.

Regarding `CC[C@@]1(O)C(=O)OCc2c1cc1n(c2=O)Cc2cc3cc(O)ccc3nc2-1`, the inhibition entry in assay [12] is “Active”.

As to `COc1cc(NS(C)(=O)=O)ccc1Nc1c2ccccc2nc2ccccc12`, the inhibition entry in assay [13] is “Active”.

In the case of `COC(=O)[C@@]12Oc3cc(C)c(-c4ccc5c(c4O)C(=O)C4=C(O)C[C@H](C)[C@@H](O)[C@]4(C(=O)OC)O5)c(O)c3C(=O)C1=C(O)CC[C@H]2O` (stereo in doubt; 1), the Activity entry in assay [14] and in [23] was “Dose-dependent effect” each time. Further, the inhibition in assay [15] was 100%; in assay [21], “Dose-dependent effect”; in assay [22], “Tde”. The inhibition result in [10] and in assay [13] was “inactive” each time. Further, the outcome in [16], in assay [17], in assay [19], in assay [20] and in assay [24] was inactive. In addition, the inhibition entry in assay [11] was “Active”. Moreover, the result in assay [18] was Active.

As for `COC(=O)[C@@]12Oc3cc(C)c(-c4ccc5c(c4O)C(=O)C4=C(O)C[C@H](C)[C@@H](O)[C@]4(C(=O)OC)O5)c(O)c3C(=O)C1=C(O)CC[C@H]2O` (stereo in doubt; 2) [listing 1 of 2 here], the IC50 in assay [1] (hct-116) worked out at 15.2 µM; in [2] (k562) it was 22.1 µM; in [3] (nci-h1975), 5.3 µM; in assay [4] (hl-60), 6.9 µM; in assay [5] it was 6.9 µM; in assay [6] (mgc-803), 6.2 µM. In addition, the IC50 in assay [7] (a549) was 19.2 µM.

As to `COC(=O)[C@@]12Oc3cc(C)c(-c4ccc5c(c4O)C(=O)C4=C(O)C[C@H](C)[C@@H](O)[C@]4(C(=O)OC)O5)c(O)c3C(=O)C1=C(O)CC[C@H]2O` (stereo in doubt; 2) [listing 2 of 2 here], the inhibition result in assay [9] and in assay [11] was “Active” throughout. In assay [10], the inhibition entry was “inactive”.
